Experimental data: US20230096028A1, “BICYCLIC HETEROCYCLYL COMPOUNDS AND USES THEREOF” (Revolution Medicines, Inc., priority 2019, published 2023)

Tests used:
[1] = target: T1, SOS1 catalytic domain (residues 564-1049) (Homo sapiens, UniProt Q07889); experiment: Potency Assay: binding affinity to SOS1 using Surface Plasmon Resonance (SPR); parameters: SOS1 catalytic domain (residues 564-1049) immobilized on a sensor chip; details: immobilized SOS1 catalytic domain (residues 564-1049), read-out: SOS1 SPR Equilibrium Kd
T1 sequence (Q07889 564-1049): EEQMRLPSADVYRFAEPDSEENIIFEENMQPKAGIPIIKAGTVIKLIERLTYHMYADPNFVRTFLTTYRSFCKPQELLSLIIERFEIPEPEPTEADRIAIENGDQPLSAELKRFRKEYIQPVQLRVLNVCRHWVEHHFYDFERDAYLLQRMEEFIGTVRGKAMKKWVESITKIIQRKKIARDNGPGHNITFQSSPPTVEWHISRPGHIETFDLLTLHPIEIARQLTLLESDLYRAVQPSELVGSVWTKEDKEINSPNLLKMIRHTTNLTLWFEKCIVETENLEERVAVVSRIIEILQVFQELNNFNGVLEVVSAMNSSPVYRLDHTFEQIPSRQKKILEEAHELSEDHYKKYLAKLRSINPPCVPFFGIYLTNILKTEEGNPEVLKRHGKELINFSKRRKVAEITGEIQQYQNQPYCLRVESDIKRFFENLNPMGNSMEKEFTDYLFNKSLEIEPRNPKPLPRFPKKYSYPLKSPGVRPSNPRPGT
In short: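 Avi-tagged SOS1 catalytic domain captured on streptavidin chip (~6000 RU) in 0.01 M HEPES, 0.15 M NaCl, 0.05% P20. Compound dilution series flowed at 50 μL/min for association, then buffer for dissociation, with double reference subtraction. Kd derived from end-of-association binding response plotted against concentration.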

[2] = target: T1, SOS1 catalytic domain (residues 564-1049); experiment: Mode of Action Assay: inhibition of SOS1 nucleotide exchange activity (SOS1 TR-FRET IC50 Assay)
[3] = system: PC-9 cells (EGFR Ex19Del); experiment: Potency Assay: pERK (SOS1 pERK IC50 Assay, AlphaLISA SureFire Ultra p-ERK1/2); type: cell-based; details: Homo sapiens; PC-9 cells (EGFR Ex19Del), 1 hour incubation, AlphaLISA p-ERK1/2; read-out: SOS1 pERK IC50
In short: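 PC-9 (EGFR Ex19Del) cells plated overnight, then treated 1 h at 37° C. with 10-point 3-fold dilutions (top 10 μM final) in duplicate. Lysate pERK1/2 measured by AlphaLISA SureFire Ultra; IC50 from 4-parameter sigmoidal fit.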

| Compound | Kd [1] | IC50 [2] | IC50 [3] |
| --- | --- | --- | --- |
| C[C@@H](Nc1nc(Cl)nc2c1CN(C(=O)N1CCOCC1)C2)c1cccc(C(F)(F)C2CN(C)CCO2)c1 (stereo partly drawn) [Example 485, 2-chloro-N-[(1R)-1-{3-[difluoro(4-methylmorpholin-2-yl)methyl]phenyl}ethyl]-6-(morpholine-4-carbonyl)-5H,6H,7H-pyrrolo[3,4-d]pyrimidin-4-amine] | < 400 nM | < 1000 nM | < 1000 nM |
| COC(C(=O)N1Cc2nc(Cl)nc(N[C@H](C)c3cc(N)cc(C(F)(F)F)c3)c2C1)C1CCOC1 (stereo partly drawn) [Example 259] | < 400 nM | < 1000 nM | < 1000 nM |
| C[C@@H](Nc1nc(Cl)nc2c1CN(C(=O)C1(F)CN(C)C1)C2)c1cccc(C(F)F)c1F [Example 408] | < 400 nM | < 1000 nM | < 1000 nM |
| C[C@@H](Nc1nc(Cl)nc2c1CN(C(=O)N1C[C@H]3C[C@@H]1CN3C)C2)c1cccc(C(F)F)c1F [Example 416] | < 400 nM | < 1000 nM | < 1000 nM |
| C[C@@H](Nc1nc(Cl)nc2c1CN(C(=O)c1ccncn1)C2)c1cc(N)cc(C(F)(F)F)c1 [Example 73] | < 400 nM | < 1000 nM | < 1000 nM |
| C[C@@H](Nc1nc(Cl)nc2c1CN(C(=O)c1nccnn1)CC2)c1cc(N)cc(C(F)(F)F)c1 [Example 248] | > 400 nM | > 1000 nM | > 1000 nM |
| CC(Nc1nc(Cl)nc2c1CN(C(=O)N1CCOCC1)C2)c1ccc(-c2ccccc2CO)s1 (stereo not drawn) [Example 53, [2-chloro-4-[1-[5-[2-(hydroxymethyl)phenyl]-2-thienyl]ethylamino]-5,7-dihydropyrrolo[3,4-d]pyrimidin-6-yl]-morpholino-methanone] | > 400 nM | > 1000 nM | > 1000 nM |
| C[C@@H](Nc1nc(Cl)nc2c1CN(C(=O)[C@@H]1COCCN1)C2)c1cccc(C(F)F)c1F [Example 309] | < 400 nM | < 1000 nM | < 1000 nM |
| C[C@@H](Nc1nc(Cl)nc2c1CN(C(=O)N1CCOc3ncccc31)C2)c1cc(N)cc(C(F)(F)F)c1 [Example 365] | < 400 nM | < 1000 nM | < 1000 nM |
| C[C@@H](Nc1nc(Cl)nc2c1CN(C(=O)N1CCN(C)C(C(F)(F)F)C1)C2)c1cccc(C(F)F)c1F (stereo partly drawn) [Example 418] | < 400 nM | < 1000 nM | < 1000 nM |

Continued, values first:

| Kd [1] | IC50 [2] | IC50 [3] | Compound |
| --- | --- | --- | --- |
| < 400 nM | < 1000 nM | < 1000 nM | C[C@@H](Nc1nc(Cl)nc2c1CN(C(=O)N1CCCC13CCN(C)C3)C2)c1cccc(C(F)F)c1F (stereo partly drawn) [Example 413] |
| < 400 nM | < 1000 nM | < 1000 nM | C[C@@H](Nc1nc(Cl)nc2c1CN(C(=O)N1C[C@H]3CN(C)C[C@H]3C1)C2)c1cccc(C(F)F)c1F [Example 414] |
| < 400 nM | < 1000 nM | < 1000 nM | COC1(C(=O)N2Cc3nc(Cl)nc(N[C@H](C)c4cccc(C(F)F)c4F)c3C2)CCN(C2COC2)CC1 [Example 325] |
| < 400 nM | < 1000 nM | < 1000 nM | C[C@@H](Nc1nc(Cl)nc2c1CN(C(=O)N1CCOCC1)C2)c1cccc(C(F)(F)C(C)(C)O)c1F [Example 493] |
| < 400 nM | < 1000 nM | < 1000 nM | CNC1(C(=O)N2Cc3nc(Cl)nc(N[C@H](C)c4cccc(C(F)F)c4F)c3C2)CCOCC1 [Example 333] |
| < 400 nM | < 1000 nM | < 1000 nM | C[C@@H](Nc1nc(Cl)nc2c1CN(C(=O)N1CCN(C)CC(F)(F)C1)C2)c1cccc(C(F)F)c1F [Example 419] |
| < 400 nM | < 1000 nM | < 1000 nM | C[C@@H](Nc1nc(Cl)nc2c1CN(C(=O)N1CCNc3ncncc31)C2)c1cccc(C(F)(F)F)c1 [Example 362] |
| < 400 nM | < 1000 nM | > 1000 nM | O=C(N1CCOCC1)N1Cc2nc(Cl)nc(NC(CF)c3cccc(C(F)(F)CO)c3)c2C1 (stereo not drawn) [Example 463, (2-chloro-4-((1-(3-(1,1-difluoro-2-hydroxyethyl)phenyl)-2-fluoroethyl)amino)-5,7-dihydro-6H-pyrrolo[3,4-d]pyrimidin-6-yl)(morpholino)methanone] |
